Reference: patent publication US4001263A, “5-Aryl-1,2,3,4-tetrahydro-γ-carbolines” (Pfizer Inc., priority 1975, dated 1977)
Counter-ions that a name gives are not always drawn. Like-named read-outs stand apart in the source and are kept apart here.

System: amphetamine-induced symptoms in rats
Experiment: antagonism of amphetamine-induced symptoms in rats (block of characteristic amphetamine cage movement behavior)
Assay type: in vivo
Details: Rattus norvegicus, ip
Description: The tranquilizing agents of the present invention are characterized by relief of such schizophrenic manifestations in humans as hallucinations, hostility, suspiciousness, emotional or social withdrawal, anxiety, agitation and tension. Standard procedures of detecting and comparing tranquilizing activity of compounds in this series and for which there is an excellent correlation with human efficacy is the antagonism of amphetamine-induced symptoms in rats test, as taught by A. Weissman, et al., J. Pharmacol. Exp. Ther., 151, 339 (1966) and by Quinton, et al.,Nature, 200, 178 (1963).
The effects of the compounds of the present invention on prominent amphetamine-induced symptoms were studied in rats by a rating scale modeled after the one reported by Quinton and Halliwell, and Weissman. Groups of five rats were placed in a covered plastic cage measuring approximately 26 cm. × 42 cm. × 16 cm. After a brief period of acclimation in the cage, the rats in each groups were treated intraperitoneally (i.p.) with the test compound. […] On the basis of dose-response data after amphetamine it was possible to determine the effective dose of the compound necessary to antagonize or block the characteristic amphetamine behavior of cage movement for 50 percent of the rats tested (ED50). The time of rating chosen coincides with the peak action of amphetamine which is 60-80 min. after treatment with this agent.
Employing the above-described procedure, the following compounds were tested for their ability to block the behavior effects of amphetamine, the results being reported as the ED50 in mg./kg. at the indicated times: […]

[1] = rats, i.p., d-amphetamine sulfate 5 mg./kg. i.p. given 1 hr. after test compound, read-out: ED50 to antagonize or block amphetamine behavior, 1 hr.
[2] = rats, i.p., d-amphetamine sulfate 5 mg./kg. i.p. given 5 hrs. after test compound, read-out: ED50 to antagonize or block amphetamine behavior, 5 hrs.
[3] = rats, i.p., d-amphetamine sulfate 5 mg./kg. i.p. given 24 hrs. after test compound, read-out: ED50 to antagonize or block amphetamine behavior, 24 hrs.

Row | Structure (SMILES) | ED50 [1] [mg/kg] | ED50 [2] [mg/kg] | ED50 [3] [mg/kg] | ED50 (1 h, read-out: ED50 to antagonize or block amphetamine behavior, 1 hr.) [mg/kg]
1 | CCN1CCc2c(c3cc(Cl)ccc3n2-c2ccccc2)C1 [Cl, H, C2H5] | 3.2 to 10 |  |  | 
2 | CC(C)(C)CCN1CCc2c(c3cc(F)ccc3n2-c2ccc(F)cc2)C1 [F, F, (CH3)3C(CH2)2, 8-fluoro-5-(p-fluorophenyl)-2-(3,3-dimethyl-n-buty)-1,2,3,4-tetrahydro-γ-carboline] | 1 to 3.2 | > 10 | > 10 | 
3 | Fc1ccc(C=CCCN2CCc3c(c4cc(F)ccc4n3-c3ccc(F)cc3)C2)cc1 [F, F, p-FC6H4CHCH(CH2)2, 8-Fluoro-5-(p-fluorophenyl)-2-[4-(p-fluorophenyl)-3-butenyl]-1,2,3,4-tetrahydro-γ-carboline] | 3.2 to 10 | 1 to 3.2 | > 3.2 | 
4 | CN1CCc2c(c3cc(F)ccc3n2-c2ccccc2)C1 [F, H, CH3] | 3.2 to 10 |  |  | 
5 | CN1CCc2c(c3ccccc3n2-c2ccccc2)C1 [H, H, CH3, 5-phenyl-2-methyl-1,2,3,4-tetrahydro-γ-carboline, reference compound] | 10 to 32 |  |  | 
6 | CCCN1CCc2c(c3cc(F)ccc3n2-c2ccc(F)cc2)C1 [F, F, n-C3H7, 8-fluoro-5-(p-fluorophenyl)-2-n-propyl-1,2,3,4-tetrahydro-γ-carboline] | 3.2 to 10 | > 10 | > 3.2 | 
7 | CN1CCc2c(c3cc(F)ccc3n2-c2ccc(F)cc2)C1 [F, F, CH3, 8-Fluoro-5-(p-fluorophenyl)-2-methyl-1,2,3,4-tetrahydro-γ-carboline hydrochloride] | 1 to 3.2 |  |  | 
8 | CN1CCc2c(c3cc(Cl)ccc3n2-c2ccccc2)C1 [Cl, H, CH3, 8-Chloro-5-phenyl-2-methyl-1,2,3,4-tetrahydro-γ-carboline hydrochloride] | 3.2 to 10 |  |  | 
9 | c1ccc(CN2CCc3c(c4ccccc4n3-c3ccccc3)C2)cc1 [H, H, CH2C6H5, 5-phenyl-2-benzyl-1,2,3,4-tetrahydro-γ-carboline, reference compound] | > 32 |  |  | 
10 | CN1CCc2c(c3cc(Br)ccc3n2-c2ccccc2)C1 [Br, H, CH3] | 3.2 to 10 |  |  | 
11 | CCN1CCc2c(c3cc(F)ccc3n2-c2ccc(F)cc2)C1 [F, F, C2H5, 8-Fluoro-5-(p-fluorophenyl)-2-ethyl-1,2,3,4-tetrahydro-γ-carboline hydrochloride] | 3.2 to 10 | > 10 | > 10 | 
12 | CN(C)CCCN1c2ccccc2Sc2ccc(Cl)cc21 [chlorpromazine, reference compound] |  |  |  | 7
